From ChEMBL document CHEMBL1201862, “PubChem BioAssay data set” (2004)
Structures can show the parent of a compound that is named as a salt.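 1) Cells in 96-well plates. 2) Compound, 48 h, 5 concentrations. 3) Linear interpolation between surrounding doses. 4) Unreached endpoint = highest concentration. GI50 is the concentration that inhibits growth by half.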 Activity calls are given as the source filed them. No stated cut-off is given here; in the data, active = GI50 up to about 1.1 µM and inactive = higher.

Assays:
Test in all cases: DTP human tumour cell line panel, 48 h
TK-10 = system: TK-10
HT-29 = system: HT-29
SF-295 = system: SF-295
HL-60 = system: HL-60
SN12C = system: SN12C
UO-31 = system: UO-31
RPMI-8226 = system: RPMI-8226
SNB-75 = system: SNB-75
NCI-H522 = system: NCI-H522
A498 = system: A498
U-251 = system: U-251
NCI-H23 = system: NCI-H23
786-0 = system: 786-0
Malme-3M = system: Malme-3M
CCRF-CEM = system: CCRF-CEM
UACC-62 = system: UACC-62
KM12 = system: KM12
M14 = system: M14
COLO 205 = system: COLO 205
SK-OV-3 = system: SK-OV-3

SMILES | GI50 (TK-10) | GI50 (HT-29) | GI50 (SF-295) | GI50 (HL-60) | GI50 (SN12C) | GI50 (UO-31) | GI50 (RPMI-8226) | GI50 (SNB-75) | GI50 (NCI-H522) | GI50 (A498) | GI50 (U-251) | GI50 (NCI-H23) | GI50 (786-0) | GI50 (Malme-3M) | GI50 (CCRF-CEM) | GI50 (UACC-62) | GI50 (KM12) | GI50 (M14) | GI50 (COLO 205) | GI50 (SK-OV-3)
NCC1CCCCC1.O=C(O)NCC1CCCCC1 | 30 µM (inactive) | 19.3 µM (inactive) | 19.1 µM (inactive) | 15.6 µM (inactive) | 12.5 µM (inactive) | 33.6 µM (inactive) | 1.36 µM (inactive) | 13.7 µM (inactive) | 10.7 µM (inactive) | 15 µM (inactive) | 7.45 µM (inactive) | 23.3 µM (inactive) | 24.1 µM (inactive) | 2.29 µM (inactive) | 15.7 µM (inactive) | 18.7 µM (inactive) | 12.1 µM (inactive) | 36.6 µM (inactive) | – | –
C=C1CC2(CC(c3ccccc3Cl)OC(c3ccccc3Cl)C2)OC1=O (stereo not given) | 4.33 µM (inactive) | 2.55 µM (inactive) | 8.97 µM (inactive) | 1.05 µM (active) | 2.37 µM (inactive) | 5.89 µM (inactive) | 0.752 µM (active) | 3.17 µM (inactive) | 1.72 µM (inactive) | 9.73 µM (inactive) | 8.07 µM (inactive) | 3.83 µM (inactive) | 2 µM (inactive) | 3.57 µM (inactive) | 1.96 µM (inactive) | 1.94 µM (inactive) | 2.33 µM (inactive) | 1.71 µM (inactive) | 2.31 µM (inactive) | 6.87 µM (inactive)
Cc1n2nc(N)sc2n[n+]1CC(=O)c1ccccc1 | > 100 µM (inactive) | > 100 µM (inactive) | > 100 µM (inactive) | – | > 100 µM (inactive) | > 100 µM (inactive) | > 100 µM (inactive) | > 100 µM (inactive) | > 100 µM (inactive) | > 100 µM (inactive) | > 100 µM (inactive) | > 100 µM (inactive) | > 100 µM (inactive) | > 100 µM (inactive) | 70 µM (inactive) | 14 µM (inactive) | > 100 µM (inactive) | > 100 µM (inactive) | > 100 µM (inactive) | 24.3 µM (inactive)
Cn1c(=O)c2c3ccccc3c(C(=O)c3ccccc3)n2c2ccccc21 | > 43.7 µM (inactive) | 3.63 µM (inactive) | 5.69 µM (inactive) | 4.65 µM (inactive) | 9.33 µM (inactive) | > 52.7 µM (inactive) | 3.55 µM (inactive) | 3.18 µM (inactive) | 3.33 µM (inactive) | 7.31 µM (inactive) | 18.9 µM (inactive) | 23.3 µM (inactive) | 10.3 µM (inactive) | 5.62 µM (inactive) | 9.82 µM (inactive) | 4.02 µM (inactive) | 2.44 µM (inactive) | 8.55 µM (inactive) | 5.51 µM (inactive) | –
CC1OC(OC2C(OC(=O)[C@]34CCC(C)(C)C[C@H]3C3=CC[C@@H]5[C@@]6(C)CC[C@H](OC7OC(C(=O)O)C(O)C(O)C7O)C(C)(C)[C@@H]6CC[C@@]5(C)[C@]3(C)C[C@H]4O)OCC(O)C2O)C(O)C(OC2OCC(O)(CO)C2O)C1OC1OCC(O)C(O)C1O (stereo not given in full) | – | 3.53 µM (inactive) | 11.9 µM (inactive) | 3.19 µM (inactive) | 3.37 µM (inactive) | 2.92 µM (inactive) | 7.23 µM (inactive) | 17.7 µM (inactive) | 4.08 µM (inactive) | 1.83 µM (inactive) | 9.64 µM (inactive) | 2.59 µM (inactive) | 12.1 µM (inactive) | 11.6 µM (inactive) | 17 µM (inactive) | 16 µM (inactive) | 4.36 µM (inactive) | 10.8 µM (inactive) | 1.81 µM (inactive) | 15.6 µM (inactive)
NNC(=S)N1CCN(C(=S)NN)CC1 | – | > 100 µM (inactive) | > 100 µM (inactive) | 32.4 µM (inactive) | > 100 µM (inactive) | > 100 µM (inactive) | > 100 µM (inactive) | > 100 µM (inactive) | > 100 µM (inactive) | 4.97 µM (inactive) | > 100 µM (inactive) | > 100 µM (inactive) | > 100 µM (inactive) | > 100 µM (inactive) | > 100 µM (inactive) | > 100 µM (inactive) | > 100 µM (inactive) | 13.7 µM (inactive) | 65.8 µM (inactive) | > 100 µM (inactive)
C[C@@H](CO)OCOCc1ccccc1 | – | > 100 µM (inactive) | > 100 µM (inactive) | > 100 µM (inactive) | > 100 µM (inactive) | > 100 µM (inactive) | > 100 µM (inactive) | > 100 µM (inactive) | > 100 µM (inactive) | > 100 µM (inactive) | > 100 µM (inactive) | > 100 µM (inactive) | > 100 µM (inactive) | > 100 µM (inactive) | > 100 µM (inactive) | > 100 µM (inactive) | > 100 µM (inactive) | > 100 µM (inactive) | > 100 µM (inactive) | > 100 µM (inactive)
COC(=O)C(=O)C(C(=O)C(=O)Nc1ccc([N+](=O)[O-])cc1)c1nc2ccccc2nc1O (stereo not given) | > 100 µM (inactive) | 81.5 µM (inactive) | – | > 100 µM (inactive) | > 100 µM (inactive) | > 100 µM (inactive) | > 100 µM (inactive) | > 100 µM (inactive) | > 100 µM (inactive) | > 100 µM (inactive) | > 100 µM (inactive) | > 100 µM (inactive) | > 100 µM (inactive) | > 100 µM (inactive) | > 100 µM (inactive) | 19.6 µM (inactive) | 57.3 µM (inactive) | 42.2 µM (inactive) | > 100 µM (inactive) | > 100 µM (inactive)
c1ccc2c(c1)nc1n2C2CCC(C2)N1 (stereo not given) | > 10 µM (inactive) | > 10 µM (inactive) | > 10 µM (inactive) | > 10 µM (inactive) | > 10 µM (inactive) | > 10 µM (inactive) | > 10 µM (inactive) | 1.87 µM (inactive) | > 10 µM (inactive) | > 10 µM (inactive) | > 10 µM (inactive) | > 10 µM (inactive) | > 10 µM (inactive) | > 10 µM (inactive) | > 10 µM (inactive) | > 10 µM (inactive) | – | > 10 µM (inactive) | > 10 µM (inactive) | > 10 µM (inactive)
O=C(NO)NCCCl | > 100 µM (inactive) | > 100 µM (inactive) | > 100 µM (inactive) | > 100 µM (inactive) | > 100 µM (inactive) | > 100 µM (inactive) | > 100 µM (inactive) | > 100 µM (inactive) | > 100 µM (inactive) | 49.5 µM (inactive) | > 100 µM (inactive) | > 100 µM (inactive) | > 100 µM (inactive) | > 100 µM (inactive) | > 100 µM (inactive) | > 100 µM (inactive) | > 100 µM (inactive) | > 100 µM (inactive) | > 100 µM (inactive) | > 100 µM (inactive)
c1cc(-c2cnc(-c3ccc4c(c3)CCCO4)o2)ccn1 | 12.7 µM (inactive) | 16.8 µM (inactive) | 20 µM (inactive) | 4.33 µM (inactive) | 18.5 µM (inactive) | 12.3 µM (inactive) | 6.24 µM (inactive) | 12.2 µM (inactive) | 10 µM (inactive) | 12.3 µM (inactive) | 16.7 µM (inactive) | 15.5 µM (inactive) | 19.5 µM (inactive) | 16.7 µM (inactive) | 5.98 µM (inactive) | 17.1 µM (inactive) | – | 18.6 µM (inactive) | 18.5 µM (inactive) | 20.3 µM (inactive)
CCOC(=O)/C(=C/c1ccccc1Br)P(=O)(OCC)OCC | 3.23 µM (inactive) | 2.82 µM (inactive) | 3.96 µM (inactive) | 0.226 µM (active) | 2.06 µM (inactive) | – | 0.815 µM (active) | 1.48 µM (inactive) | 0.927 µM (active) | 3.19 µM (inactive) | 1.59 µM (inactive) | 1.73 µM (inactive) | 1.34 µM (inactive) | 1.84 µM (inactive) | 0.738 µM (active) | 1.24 µM (inactive) | 1.87 µM (inactive) | 1.54 µM (inactive) | – | –
C[C@@H]1CC[C@]2(C(=O)O)CC[C@]3(C)C(=CC[C@@H]4[C@@]5(C)CC[C@H](O)C(C)(C)[C@@H]5CC[C@]43C)[C@@H]2[C@]1(C)O [POMOLIC ACID] | 14.5 µM (inactive) | – | 3.22 µM (inactive) | 4.35 µM (inactive) | 13.6 µM (inactive) | 11.3 µM (inactive) | 16.3 µM (inactive) | 13.5 µM (inactive) | 13.9 µM (inactive) | 19 µM (inactive) | 14.1 µM (inactive) | 18.7 µM (inactive) | 5.38 µM (inactive) | 12.3 µM (inactive) | 10.3 µM (inactive) | 3.49 µM (inactive) | 12.4 µM (inactive) | 2.98 µM (inactive) | 16.4 µM (inactive) | 17.9 µM (inactive)
CN[C@@H]1[C@H](O)[C@H](NC)[C@H]2O[C@@]3(O)C(=O)C[C@@H](C)O[C@H]3O[C@@H]2[C@H]1O [SPECTINOMYCIN SULFATE] | – | > 100 µM (inactive) | > 100 µM (inactive) | > 100 µM (inactive) | > 100 µM (inactive) | > 100 µM (inactive) | > 100 µM (inactive) | > 100 µM (inactive) | > 100 µM (inactive) | > 100 µM (inactive) | > 100 µM (inactive) | > 100 µM (inactive) | > 10 µM (inactive) | > 100 µM (inactive) | > 100 µM (inactive) | > 100 µM (inactive) | > 100 µM (inactive) | > 100 µM (inactive) | > 100 µM (inactive) | > 100 µM (inactive)
